Results on 19 molecules are retold here after patent US20250059174A1, “Pharmaceutical Compounds and Compositions as C-Kit Kinase Inhibitors” (Enanta Pharmaceuticals, Inc., priority 2023, published 2025).

Where only a bound is given, the exact number is not on record here.

Assay [1] has as its target Recombinant human c-KIT kinase (Homo sapiens (Human), UniProt P10721). The assay can be described thus: c-KIT kinase chemiluminescence assay (ADP-Glo). Type of assay: biochemical. The note with it: ATP 50 μM. Put shortly:
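ADP formed by c-KIT on polyEY over 2 h at RT (after 30 min enzyme preincubation; Tris pH 7.5, MgCl2, BSA, DTT buffer) was detected by ADP-Glo luminescence. IC50 and Hill slope were fitted to control-normalized activity across compound concentrations.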

The subject of a further assay is M-07e cells. The assay can be described thus: M-07e cellular assay (SCF-mediated cell proliferation). The class given is cell-based. The conditions noted are these: Homo sapiens, 72 hours, CellTiter Glo. Put shortly:
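CellTiter Glo luminescence after 72 h compound exposure in SCF (EC90)-stimulated M-07e cells expressing endogenous human c-KIT.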
(In general: In ATP-based viability assays light output follows the ATP content of the culture.)

Recombinant human c-KIT kinase, sequence (P10721 26-976): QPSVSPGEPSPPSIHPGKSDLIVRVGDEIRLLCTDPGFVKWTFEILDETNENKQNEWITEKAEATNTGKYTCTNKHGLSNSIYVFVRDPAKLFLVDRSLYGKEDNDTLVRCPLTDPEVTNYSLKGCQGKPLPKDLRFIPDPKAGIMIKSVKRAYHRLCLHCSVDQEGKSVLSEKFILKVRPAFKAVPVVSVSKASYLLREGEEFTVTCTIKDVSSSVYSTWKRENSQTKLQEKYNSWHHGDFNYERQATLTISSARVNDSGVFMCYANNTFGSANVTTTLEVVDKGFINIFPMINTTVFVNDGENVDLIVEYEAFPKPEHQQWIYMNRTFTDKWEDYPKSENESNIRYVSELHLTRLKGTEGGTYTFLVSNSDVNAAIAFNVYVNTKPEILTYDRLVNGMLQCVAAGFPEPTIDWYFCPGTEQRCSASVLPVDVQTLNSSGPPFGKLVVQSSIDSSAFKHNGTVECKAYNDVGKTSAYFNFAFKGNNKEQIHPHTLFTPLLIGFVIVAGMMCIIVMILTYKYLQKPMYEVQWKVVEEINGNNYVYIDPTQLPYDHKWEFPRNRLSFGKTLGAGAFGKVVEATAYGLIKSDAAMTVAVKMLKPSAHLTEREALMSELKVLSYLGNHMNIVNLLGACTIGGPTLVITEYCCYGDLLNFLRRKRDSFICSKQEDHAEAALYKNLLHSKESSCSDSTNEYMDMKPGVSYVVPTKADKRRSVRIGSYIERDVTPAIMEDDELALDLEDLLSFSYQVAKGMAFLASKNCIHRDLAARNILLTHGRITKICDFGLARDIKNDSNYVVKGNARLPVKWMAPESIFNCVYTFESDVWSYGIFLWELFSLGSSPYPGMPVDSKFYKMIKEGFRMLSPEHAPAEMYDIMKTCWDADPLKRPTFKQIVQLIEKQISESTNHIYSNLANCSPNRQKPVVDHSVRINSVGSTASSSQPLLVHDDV

In general, IC50 refers to the concentration that inhibits the measured activity by half. Usually EC50 stands for the concentration at which the effect is half-maximal. Lower therefore signals a more potent agent. On to `Cc1ccc(-c2noc([C@@H]3C[C@@H]4[C@H](C3)C4(F)F)n2)cc1NC(=O)c1cnn2ccc(N3CC4(COC4)C3)cc12` [Example 279], for which the IC50 in assay [1] was below 100 nM. Moreover, the EC50 in the assay on M-07e cells was below 100 nM.

`Cc1ccc(-c2noc([C@H]3C[C@@H]3F)n2)cc1NC(=O)c1cnc(-c2ccc3nnn(C)c3c2)o1` [Example 308-46]: in assay [1], the IC50 is 100 to 1000 nM. In addition, in the assay on M-07e cells, the concentration for a half-maximal effect (EC50) lay in the range of 100 to 1000 nM.

Regarding `COC(=O)N1CC(c2nc(-c3cc(NC(=O)c4cnc(-c5ccc6c(c5)CC(=O)N6)o4)c(C)cc3F)no2)C1` [Example 308-59], the IC50 in assay [1] lay within 100 to 1000 nM. This molecule also gave an EC50 with M-07e cells of 100 to 1000 nM.

Take `Cc1ccc(-c2noc([C@H]3C[C@@H]3F)n2)cc1NC(=O)c1cnn2ccc(N3CC(C(F)(F)F)C3)cc12` [Example 225]: in assay [1], the IC50 was below 100 nM. In the assay with M-07e cells, the EC50 is 100 to 1000 nM.

`Cc1ccc(-c2noc(C3CN(CC(F)(F)F)C3)n2)cc1NC(=O)c1cnn2ccc(N3CC4(COC4)C3)cc12` [Example 281-8]: the IC50 in assay [1] is below 100 nM. Besides, the 50% effective concentration (EC50) in the assay on M-07e cells is below 100 nM.

As for `COC(=O)N1CC2(CC(c3nc(-c4ccc(C)c(NC(=O)c5cnn6ccc(N7CC8(C7)CC(O)(C(F)F)C8)cc56)c4)no3)C2)C1` [Example 281-109], the IC50 in assay [1] was below 100 nM. The same molecule displayed an EC50 in the assay with M-07e cells of 100 to 1000 nM.

On to `Cc1ccc(-c2noc([C@H]3C[C@@H]3F)n2)cc1NC(=O)c1cnc(-c2ccc3c(c2)C2(CCN(C(=O)OC(C)(C)C)CC2)C(=O)N3)o1` [Example 308-8], for which the IC50 in assay [1] is above 1000 nM. In the assay on M-07e cells, this molecule came in with an EC50 of 100 to 1000 nM.

In the case of `Cc1ccc(-c2noc([C@H]3C[C@@H]3F)n2)cc1NC(=O)c1cnn2ccc(-c3c(C)nc(N4CCC4)nc3C)cc12` [Example 171-12], the IC50 in assay [1] fell in the range of 100 to 1000 nM. The molecule also came in with an EC50 in the assay with M-07e cells of 100 to 1000 nM.

Take `Cc1ccc(-c2noc([C@H]3C[C@@H](OC(F)F)C3(C)C)n2)cc1NC(=O)c1cnn2ccc(N3CC4(COC4)C3)cc12` [Example 250]: the IC50 in assay [1] is below 100 nM. Also, the 50% effective concentration (EC50) in the assay on M-07e cells was in the range of 100 to 1000 nM.

With `CO[C@H]1C[C@H](c2nc(-c3ccc(C)c(NC(=O)c4cnn5ccc(N6CC7(COC7)C6)cc45)c3)no2)C1` [Example 274], the IC50 in assay [1] is 100 to 1000 nM. This molecule displayed an EC50 in the assay with M-07e cells below 100 nM.

Turning to `Cc1ccc(-c2noc([C@H]3C[C@@H]3F)n2)cc1NC(=O)c1cnn2ccc(N3CC4CCC3CN4C(=O)OC(C)(C)C)cc12` (some centres unmarked) [Example 210], the IC50 in assay [1] is 100 to 1000 nM. The EC50 with M-07e cells lay within 100 to 1000 nM.

Turning to `Cc1ccc(-c2noc([C@H]3C[C@@H]3F)n2)cc1NC(=O)c1cnc2n1CCC2` [Example 37], in assay [1], the IC50 is above 1000 nM. Besides, in the assay on M-07e cells, the EC50 is above 1000 nM.

As for `CC(=O)N1CC(Oc2ccn3ncc(C(=O)Nc4cc(-c5noc([C@H]6C[C@@H]6F)n5)ccc4C)c3c2)C1` [Example 218], in assay [1], the IC50 lay in the range of 100 to 1000 nM. In the assay on M-07e cells, this molecule registered an EC50 of 100 to 1000 nM.

With `Cc1ccc(-c2noc([C@H]3C[C@@H]3F)n2)cc1NC(=O)c1cnc(-c2cccc(N3CC4(COC4)C3)c2)o1` [Example 288], the IC50 in assay [1] lay in the range of 100 to 1000 nM. The molecule further gave an EC50 in the assay with M-07e cells of 100 to 1000 nM.

Take `Cc1ncc(-c2ncc(C3CC3)cn2)cc1NC(=O)c1cnn2ccc(N3CC4(C3)CC(O)(C(F)F)C4)cc12` [Example 317]: the IC50 in assay [1] lay within 100 to 1000 nM. The EC50 with M-07e cells is below 100 nM.

For the molecule `COCCn1nc(C)c(-c2ccn3ncc(C(=O)Nc4cc(-c5noc([C@H]6C[C@@H]6F)n5)ccc4C)c3c2)c1C` [Example 146], in assay [1], the IC50 was below 100 nM. In the assay with M-07e cells, this molecule yielded an EC50 below 100 nM.

Turning to `Cc1ccc(-c2noc([C@H]3C[C@@H]3F)n2)cc1NC(=O)c1cnn(-c2cccc(N)c2)c1` [Example 74], the IC50 in assay [1] lay within 100 to 1000 nM. Besides, the EC50 with M-07e cells was above 1000 nM.

Take `Cc1ccc(-c2noc([C@H]3C[C@@H]3F)n2)cc1NC(=O)c1cnn2ccc(NC(=O)NC3CC3)cc12` [Example 96]: the IC50 in assay [1] fell in the range of 100 to 1000 nM. Further, the EC50 in the assay with M-07e cells fell in the range of 100 to 1000 nM.

As for `Cc1cc(C)c(-c2ccn3ncc(C(=O)Nc4cc(-c5noc([C@H]6C[C@@H]6F)n5)ccc4C)c3c2)cn1` [Example 171-26], the IC50 in assay [1] was below 100 nM. This molecule also registered an EC50 in the assay with M-07e cells below 100 nM.
